Data published in US20230174484A1, “ANTAGONISTS OF GPR39 PROTEIN” (Oregon Health & Science University, priority 2020, published 2023).
“Also recorded” adds a separate entry of the source.

Columns and labels:
[1] = target: T1, human GPR39 receptor (Homo sapiens, UniProt O43194); experiment: Measurement of intracellular calcium response in PC3 cells (FLIPR), antagonism of the C3 agonist response; type: cell-based; conditions: functional pKi (modified Cheng-Prusoff), inhibition of the C3 (TC-G 1008) response at EC90, 30 μM ZnCl2, read-out: fpKi activity
T1 construct: PC3 Cells, Expressing the Endogenous Human GPR39 Receptor; endogenous in cells; host or cells: PC3 (human prostate adenocarcinoma) cells
T1 sequence (O43194 1-453): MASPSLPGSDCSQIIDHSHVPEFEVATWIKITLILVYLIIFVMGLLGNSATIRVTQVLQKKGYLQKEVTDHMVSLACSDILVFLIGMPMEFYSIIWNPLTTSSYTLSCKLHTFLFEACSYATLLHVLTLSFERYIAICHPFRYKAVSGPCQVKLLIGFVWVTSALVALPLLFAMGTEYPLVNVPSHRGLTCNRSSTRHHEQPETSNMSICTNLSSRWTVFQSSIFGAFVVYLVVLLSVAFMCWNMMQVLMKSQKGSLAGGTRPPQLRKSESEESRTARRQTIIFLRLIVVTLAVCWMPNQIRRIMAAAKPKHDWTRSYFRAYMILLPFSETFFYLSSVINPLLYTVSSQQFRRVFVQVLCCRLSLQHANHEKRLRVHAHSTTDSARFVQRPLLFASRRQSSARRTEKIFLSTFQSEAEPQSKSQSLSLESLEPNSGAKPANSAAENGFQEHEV
Summary of the method: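 Potency was reported as fpKi, converted by modified Cheng-Prusoff from four-parameter IC50 fits against an EC90 C3 agonist challenge. Calcium-6 FLIPR readings used PC3 cells naturally expressing human GPR39, in pH 7.4 HEPES buffer containing 30 μM final ZnCl2. Score bands: +/± <5.2, + 5.2–5.9, ++ 6.0–6.5, +++ 6.6–7.2, ++++ ≥7.3.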

[2] = test system: wild-type mice, left coronary artery occlusion/reperfusion; experiment: No reflow after coronary occlusion and reperfusion in mice (Thioflavin S / Evans Blue); type: in vivo, mouse; conditions: WT mice, 1.5 mg/kg i.v. 15 min after occlusion, 45 min occlusion, 2 hr reperfusion, versus vehicle
Protocol: FIGS. 4A-4D depict no reflow data from WT, GPR39 KO, and EXAMPLE 34 mice. Thioflavin-S and Evans Blue were injected ante-mortem and measurement of no reflow (area without Evans Blue on the right panel). […] EXAMPLE 34 was given 15 min after coronary occlusion which lasted a total of 45 min followed by 2 hour reperfusion. The role of pericytes was examined in no reflow after reperfusion in a separate group of animals since infarct size and no reflow post-mortem cciuid not be measured in the same animals, Thioflavin S, a perfusion marker, was injected into the left coronary artery after reperfusion. Thereafter, the left coronary artery was briefly re-occluded and 0.2 ml Evan's blue (1%) injected. The heart was then excised, transversely sliced into 5-6 pieces and photographed under UV light (under which Thioflavin S fluoresces blue) to identify the area of no reflow and under standard lighting to identify the AAR, and the no reflow zone expressed as a percent of the AAR.

[3] = test system: spontaneously hypertensive rat (SHR); experiment: Acute intravenous effect on blood pressure in the spontaneously hypertensive rat; type: in vivo; conditions: for BP reduction, percentage of pre-administration baseline: lowest value over 10 min, isoflurane anaesthesia
Protocol: Decrease in BP was expressed as a percentage of baseline BP (*p<0.05).
The effect of acute intravenous administration of EXAMPLE 34 on BP in the spontaneously hypertensive rat (SHR) was determined. […] At 10 mg/kg, BP was reduced by 15%, and at 25 mg/kg, the reduction exceeded 20% of pre-administration baseline. EXAMPLE 34 was administered slowly via bolus injections through the jugular vein in a vehicle consisting of 100% PEG 400, and the change in BP after administration (lowest value over 10 min) was normalized to pre-administration baseline. This was the first proof of principle that pharmacological inhibition of GPR39 reduced BP acutely in a well-established animal model of hypertension.

[4] = test system: wild-type mice, left coronary artery occlusion/reperfusion; experiment: Infarct size after left coronary artery occlusion and reperfusion in mice; type: in vivo, mouse; conditions: WT mice, single dose 15 min after occlusion, 45 min occlusion, 2 hr reperfusion, versus vehicle
Protocol: FIG. 3A depicts the timeline of experimental design. EXAMPLE 34 was given 15 min after left coronary occlusion as a single dose during a 45 min occlusion followed by 2 hr of reperfusion.
Infarct size in both FIG. 3C and FIG. 3D is expressed as a percent of AAR defined by Evans Blue. Summary data are depicted to the right of actual images from single representative animals.
The role of pericytes in tissue necrosis following coronary occlusion was examined (FIG. 3A).

Row | SMILES | Ki [1] [nM] | further results
1 | O=C(Nc1ccc(C(=O)N2CCN(c3ncnc4ccsc34)CC2)c(N2CCCCCC2)c1)C1CC1 [EXAMPLE 34, N-[3-(azepan-1-yl)-4-(4-thieno[3,2-d]pyrimidin-4-ylpiperazine-1-carbonyl)phenyl]Cyclopropanecarboxamide] | 1260 to 6310 | No reflow zone / AAR ratio [2]: negligible no reflow zones; also recorded: significant reduction in no reflow/AAR ratio; BP reduction, percentage of pre-administration baseline ([3]; 10 mg/kg i.v. bolus): 15%; BP reduction, percentage of pre-administration baseline ([3]; 25 mg/kg i.v. bolus): exceeded 20%; Effect on BP in SHR ([3]; i.v., concentrations higher than 10 mg/kg): significantly reduced BP; Infarct size/area at risk (AAR) ratio [4]: significantly smaller; also recorded: significant reduction in infarct size
2 | Cc1nnc(-c2ccc(C(=O)N3CCN(C)CC3c3ccccc3)c(N3CCC(C(F)(F)F)C3)c2)[nH]1 (single isomer, unassigned) [Example 177c, (2S, 3R) or (2R, 3S) or (2R, 3R) or (2S, 3S) (4-methyl-2-phenylpiperazin-1-yl)-[4-(5-methyl-4H-1,2,4-triazol-3-yl)-2-[3-(trifluoromethyl)pyrrolidin-1-yl]phenyl]methanone] | ≤ 50.1 | 
3 | CN1CCN(C(=O)c2ccc(NC(=O)C3CC3)nc2N2CCCC2)C(c2ccccc2)C1 (racemic) [Example 149c, N-[45-(4-methyl-2-phenylpiperazine-1-carbonyl)-6-pyrrolidin-1-ylpyridin-2-yl]cyclopropanecarboxamide] | 63.1 to 251 | 
4 | CN1CCN(C(=O)c2ccc(-c3nnc(C4CC4)[nH]3)cc2N2CCCC2)C(c2ccccc2)C1 (racemic) [Example 151c, [4-(5-cyclopropyl-4H-1,2,4-triazol-3-yl)-2-pyrrolidin-1-ylphenyl]-(4-methyl-2phenylpiperazin-1-yl)methanone] | 63.1 to 251 | 
5 | CN1CCN(C(=O)c2ccc(NC(=O)C3CC3)cc2N2CCC(F)(F)C2)C(c2ccccc2)C1 (single isomer, unassigned) [Example 202a, N-[3-(3,3-difluoropyrrolidin-1-yl)-4-(2R or 2S)-4-methyl-2-phenylpiperazine-1-carbonyl)phenyl]cyclopropanecarboxamide] | 1260 to 6310 | 
6 | CCCN1CCN(C(=O)c2ccc(NC(=O)C3CC3)cc2N2CCCC3(COC3)C2)CC1 [Example 6, N-(4-(4-propylpiperazine-1-carbonyl)-3-(2-oxa-6-azaspiro[3.5]nonan-6-yl)phenyl)cyclopropane carboxamide] | 1260 to 6310 | 
7 | CC1CCN(c2cc(NC(=O)C3CC3)ccc2C(=O)N2CCC(C(F)(F)F)CC2)C1 (single isomer, unassigned) [Example 63a, (N-[3-(3R or 3S-methylpyrrolidin-l-yl)-4-[4-(trifluoromethyl)piperidine-1-carbonyl]phenyl]cyclopropanecarboxamide] | ≤ 50.1 | 
8 | CCCN1CCN(C(=O)c2ccc(NC(=O)C3CC3)cc2N2CC3(CCOCC3)C2)CC1 [Example 4, N-(4-(4-propylpiperazine-1-carbonyl)-3-(7-oxa-2-azaspiro[3.5]nonan-2-yl)phenyl)cyclopropane carboxamide] | 316 to 1000 | 
9 | CCCN1CCN(C(=O)c2ccc(NC(=O)C3CC3)cc2-n2ccc(C(F)(F)F)n2)CC1 [Example 158, N-[4-(4-propylpiperazine-1-carbonyl)-3-[3-(trifluoromethyl)pyrazol-1-yl]phenyl]cyclopropanecarboxamide] | ≤ 50.1 | 
10 | CN1CCN(C(=O)c2ccc(NC(=O)C3CC3)cc2N2CCCC2)C(c2ccccc2)C1 (racemic) [Example 62c, N-[4-(4-methyl-2-phenylpiperazine-1-carbonyl)-3-pyrrolidin-1-ylphenyl]Cyclopropanecarboxamide] | 63.1 to 251 | 
11 | O=C(NCc1ccccn1)c1ccc(NC(=O)C2CC2)cc1N1CCCCCC1 [Example 42, 2-(azepan-1-yl)-4-cyclopropaneamido-N-[(pyridin-2-yl)methyl]benzamide] | 316 to 1000 | 
12 | CN1CCN(C(=O)c2ccc(NC(=O)C3CC3)nc2N2CC3CC3C2)C(c2ccccc2)C1 (racemic) [Example 145] | 63.1 to 251 | 
13 | Cc1nnc(-c2ccc(C(=O)N3CCN(C)CC3c3ccccc3)c(N3CCCC3)c2)[nH]1 (single isomer, unassigned) [Example 150b, (2R or 2S) (4-methyl-2-phenylpiperazin-1-yl)-[4-(5-methyl-4H-1,2,4-triazol-3-yl)-2-pyrrolidin-1-ylphenyl]methanone] | 1260 to 6310 | 
14 | O=C(Nc1ccc(C(=O)N2CCOCC2c2ccccc2)c(N2CCCC2)c1)C1CC1 (racemic) [Example 167, N-[4-(3-phenylmorpholine-4-carbonyl)-3-pyrrolidin-1-ylphenyl]cyclopropanecarboxamide] | 63.1 to 251 | 
15 | O=C(Nc1ccc(C(=O)N2CCN(Cc3ccon3)CC2)c(N2CCCCCC2)c1)C1CC1 [Example 22, N-(3-(azepan-1-yl)-4-(4-(isoxazol-3-ylmethyl)piperazine-1-carbonyl)phenyl) cyclopropanecarboxamide] | 63.1 to 251 | 
16 | CCCN1CCN(C(=O)c2ccc(NC(=O)C3CC3)cc2N2CCCCCC2)C(c2ccccc2)C1 (racemic) [Example 73c, N-[3-(azepan-1-yl)-4-(2-phenyl-4-propylpiperazine-1-carbonyl)phenyl]Cyclopropanecarboxamide] | ≤ 50.1 | 
17 | CN1CCN(C(=O)c2ccc(NC(=O)C3CC3)cc2N2CCCC2)C(c2ccccc2)C1 (single isomer, unassigned) [Example 62a, (2R or 2S) n-[4-(4-methyl-2-phenylpiperazine-1-carbonyl)-3-pyrrolidin-1-ylphenyl] Cyclopropanecarboxamide] | ≤ 50.1 | 
18 | O=C(Nc1ccc(C(=O)N2CCS(=O)(=O)CC2)c(N2CCOC(C(F)(F)F)C2)c1)C1CC1 (racemic) [Example 186, N-[4-(1,1-dioxo-1,4-thiazinane-4-carbonyl)-3-[2-(trifluoromethyl)morpholinyl]phenyl]cyclopropanecarboxamide] | 316 to 1000 | 
19 | CN1CCN(C(=O)c2ccc(NC(=O)C3CC3)cc2N2CCCC2)C(c2ccccc2F)C1 (single isomer, unassigned) [Example 84a, N-[4-[2-(2-fluorophenyl)-4-methylpiperazine-1-carbonyl]-3-pyrrolidin-1-ylphenyl]cyclopropanecarboxamide] | 63.1 to 251 | 
